Assay [1] has as its system LDLR−/− mice. The experiment in a line: LDLR−/− Serum Lipid Modulation. The settings on record: male LDLR−/− mice on western diet, 10 mg/kg, once daily oral gavage for seven days. The assay is classed as in vivo. On the procedure: Acclimate animals for two weeks prior to study initiation. House mice individually in polycarbonate cages with filter tops, and maintain mice on a 12:12 hour light-dark cycle (lights on at 6:00 AM) at 21° C. Provide deionized water ad libitum and maintain for two weeks on ‘western diet’ TD 88137 Diet (42% fat, 0.15% cholesterol, Harlan Teklad) ad libitum. Optimize groups of five ten-week-old male LDLR−/− mice based on serum triglyceride and cholesterol levels. Dose groups once daily by oral gavage with various doses of the test compound dissolved in 5% EtOH/5% Solutol in NaCMC (1%), SLS (0.5%), antifoam (0.05%), Povidone (0.085%) for seven days. At the end of the seven-day dosing period, collect blood by cardiac puncture after asphyxiation in a CO2 chamber. […] Lipoproteins were separated by fast protein liquid chromatography, and cholesterol was quantitated with an in-line detection system. […] The colored product produced in the presence of cholesterol was monitored in the flow stream at 505 nm, and the analog voltage from the monitor was converted to a digital signal for collection and analysis. The change in voltage corresponding to change in cholesterol concentration was plotted vs. time, and the area under the curve corresponding to the elution of VLDL-C and HDL-C was calculated using Turbochrome (version 4.12F12) software from PerkinElmer (Norwalk, Conn.).

The target in assay [2] is T1, FXR (Homo sapiens, UniProt Q96RI1).
T1 construct: Plate human hepatocarcinoma Huh7 cells grown in DMEM:F12 with 10% fetal bovine serum; endogenous in cells; host or cells: Huh7 human hepatocarcinoma cells
T1 sequence (Q96RI1 1-486): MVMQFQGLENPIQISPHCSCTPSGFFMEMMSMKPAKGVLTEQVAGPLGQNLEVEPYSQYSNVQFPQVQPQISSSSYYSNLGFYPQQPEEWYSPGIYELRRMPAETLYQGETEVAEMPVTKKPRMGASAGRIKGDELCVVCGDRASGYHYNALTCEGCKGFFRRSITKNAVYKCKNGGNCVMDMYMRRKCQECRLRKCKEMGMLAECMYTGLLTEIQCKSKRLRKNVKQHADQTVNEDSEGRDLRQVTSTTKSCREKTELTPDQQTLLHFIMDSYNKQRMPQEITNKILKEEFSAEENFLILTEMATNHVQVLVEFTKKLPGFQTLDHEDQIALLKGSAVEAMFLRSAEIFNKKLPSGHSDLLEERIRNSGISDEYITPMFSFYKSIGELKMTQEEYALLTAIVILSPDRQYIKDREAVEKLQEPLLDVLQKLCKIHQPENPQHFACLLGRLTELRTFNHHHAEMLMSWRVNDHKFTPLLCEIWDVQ
The assay can be described thus: bDNA Assay for SHP mRNA. In kind it is cell-based. The settings on record: human hepatocarcinoma Huh7 cells, 24 hours treatment, SHP mRNA by bDNA; read-out: SHP gene activation EC50. The text has this: FXR is a key, direct transcriptional regulator of the Small Heterodimer Partner (SHP) gene, accession number NM_021969, an atypical member of the nuclear receptor family that lacks a DNA-binding domain. SHP interacts with several conventional and orphan members of the nuclear receptor superfamily, including retinoid receptors and thyroid hormone receptor. SHP inhibits transactivation potential of superfamily members with which it interacts. […] Since FXR directly transactivates transcription of the SHP gene, the SHP branched DNA method (bDNA) quantitates FXR activation by ligands. Thus, increased expression of SHP mRNA, as determined by increase bDNA signal, signifies engagement of FXR by an agonist.
Plate human hepatocarcinoma Huh7 cells grown in DMEM:F12 with 10% fetal bovine serum and in 96 well plate at the density of 1×10^5/well. After overnight incubation, treat the cells with test compounds at various concentrations for 24 hours. […]
Incubate the lysis buffer for 15-minute at 37° C., then transfer 100 μL of the lysate from each well to the corresponding wells of the capture plate. […] Label the mRNA to be measured by addition of 100 μL QuantiGene® label probe working buffer then incubate for 60 minutes at 46° C. […] Incubate the plates at 37° C. for up to 30 minutes and then read on a luminometer (Packard Fusion Alpha, 1 second detection) to detect the luminescent signal. […]

SMILES strings stand for the structures.

As for `Cc1cc(CN(C)c2ccc(OCc3c(C(C)C)cnn3-c3c(Cl)cccc3Cl)cc2C)cc(C(=O)O)c1` [Example 199, 3-[({4-[2-(2,6-Dichloro-phenyl)-4-isopropyl-2H-pyrazol-3-ylmethoxy]-2-methyl-phenyl}-methyl-amino)-methyl]-5-methyl-benzoic acid], in assay [1], the “lowering of total cholesterol” value was found to be 60% and the lowering of triglycerides is on record as 63%. In general, EC50 refers to the concentration that produces a half-maximal response. For the compound `CCN(Cc1cccc(C(=O)O)c1)c1ccc(OCc2c(C(C)C)cnn2-c2c(Cl)cccc2Cl)cc1C` [Example 90, 3-[({4-[2-(2,6-Dichloro-phenyl)-4-isopropyl-2H-pyrazol-3-ylmethoxy]-2-methyl-phenyl}-ethyl-amino)-methyl]-benzoic acid], the EC50 in assay [2] is approximately 53 nM.

The values are drawn from patent US7846960B2, “FXR agonists” (Eli Lilly and Company, priority 2006, dated 2010).
